14 compounds from PubChem BioAssay (NCI) can be followed below.

Test systems include CCRF-CEM leukemia; HOP-62 NSCLC; HT29 colon; MALME-3M melanoma; MDA-MB-435; MDA-N; NCI-H23 lung; RPMI-8226 leukemia; SNB-19 CNS; A498 renal.
Assay in all cases: growth of human tumour cells (NCI), 48 h

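Compound exposure: 48 hours, 5 concentrations, 96-well plates. TGI: total growth inhibition.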

On to `COC1=C2C[C@](OC)(C#CC=CC#CC2O)CC1(C)C` (stereo not given in full), for which the TGI in the assay on CCRF-CEM leukemia, in the assay on HOP-62 NSCLC, in the assay on HT29 colon, in the assay on MALME-3M melanoma, with MDA-MB-435 and in the assay on MDA-N was over 100 µM throughout. Moreover, the TGI with NCI-H23 lung, in the assay on RPMI-8226 leukemia and in the assay with SNB-19 CNS was over 100 µM each time.

On to `O=Cc1ccc(Oc2c3ccccc3nc3ccccc23)cc1`, for which the TGI was determined as 14.5 µM with A498 renal; 6.72 µM in the assay on CCRF-CEM leukemia; 33.9 µM in the assay with HOP-62 NSCLC; 4.38 µM with HT29 colon; 30 µM in the assay on MALME-3M melanoma; 6.85 µM in the assay on MDA-MB-435. Moreover, the TGI was found to be 13.8 µM with MDA-N, 5.95 µM in the assay with RPMI-8226 leukemia and 36.4 µM in the assay on SNB-19 CNS.

In the case of `COC(=O)CCC(=O)c1ccc2c(c1)CC1(Cc3ccccc3C1)C2`, the TGI is over 100 µM in the assay with A498 renal; 45.4 µM with CCRF-CEM leukemia; over 100 µM with HOP-62 NSCLC; 43.9 µM in the assay with HT29 colon; over 100 µM in the assay with MALME-3M melanoma; over 100 µM in the assay with MDA-MB-435. For the same compound, the TGI in the assay with MDA-N, with NCI-H23 lung and in the assay with RPMI-8226 leukemia was over 100 µM each time.

In the case of `CSc1cc(Cl)c(C)cc1S(=O)(=O)NC(=O)NNc1cnc2ccccc2n1`, the TGI with A498 renal, in the assay with CCRF-CEM leukemia, in the assay on HOP-62 NSCLC, with HT29 colon, in the assay on MALME-3M melanoma and with MDA-MB-435 was over 100 µM each time. The TGI with MDA-N and in the assay on SNB-19 CNS was over 100 µM throughout.

As to `CN1CCN2CCN(C)CCN(CC1)CC2`, the TGI in the assay on A498 renal, in the assay on CCRF-CEM leukemia, in the assay with HOP-62 NSCLC, in the assay with HT29 colon, with MDA-MB-435 and in the assay with MDA-N was over 100 µM in each case. Further, the TGI with NCI-H23 lung, with RPMI-8226 leukemia and in the assay on SNB-19 CNS was over 100 µM in each case.

With `COc1cc(CNC(=O)CCCCCCCCCCSC#N)ccc1O`, the TGI is 30.3 µM with A498 renal; 62.9 µM in the assay with CCRF-CEM leukemia; 87.2 µM in the assay with HT29 colon; over 100 µM in the assay on MALME-3M melanoma; 24.4 µM in the assay on MDA-MB-435; 31.3 µM in the assay on MDA-N. In addition, the TGI is 43 µM in the assay with NCI-H23 lung, 59.5 µM in the assay on RPMI-8226 leukemia and 48.3 µM in the assay on SNB-19 CNS.

For the compound `COc1ccc(-c2nc3ccccc3c(=O)[nH]2)cc1OC`, the TGI in the assay with CCRF-CEM leukemia, with HOP-62 NSCLC, in the assay on HT29 colon, in the assay on MALME-3M melanoma, in the assay on MDA-MB-435 and in the assay on MDA-N was over 100 µM throughout. Besides, the TGI is over 100 µM in the assay with NCI-H23 lung, over 100 µM with RPMI-8226 leukemia and 79 µM with SNB-19 CNS.

Consider `O=C(O)COc1cccc2ccccc(=O)c12`, for which the TGI in the assay with A498 renal, in the assay with CCRF-CEM leukemia, in the assay with HOP-62 NSCLC, in the assay on HT29 colon, with MALME-3M melanoma and with MDA-MB-435 was over 100 µM in each case. Further, the TGI with MDA-N, with NCI-H23 lung and in the assay on SNB-19 CNS was over 100 µM each time.

`O=c1[nH]nc(-c2ccccc2)c2[nH]c3c(c12)CCCc1ccccc1-3`: the TGI in the assay on CCRF-CEM leukemia stood at 47.2 µM; in the assay on HOP-62 NSCLC it was 46.4 µM; in the assay on HT29 colon it was 24.3 µM; in the assay with MALME-3M melanoma it was 30.9 µM; in the assay with MDA-MB-435, 29.6 µM; in the assay with MDA-N, 29.4 µM. The TGI in the assay with NCI-H23 lung was over 100 µM; in the assay with RPMI-8226 leukemia it was 31.2 µM; in the assay on SNB-19 CNS, 26.8 µM.

As for `O=C(O)Cc1ccc(-n2nnc3c(=O)[nH][nH]c(=O)c32)cc1`, the TGI in the assay with CCRF-CEM leukemia, with HOP-62 NSCLC, in the assay on HT29 colon, in the assay on MALME-3M melanoma, in the assay with MDA-MB-435 and in the assay on MDA-N was over 100 µM in each case. The TGI in the assay with NCI-H23 lung, in the assay on RPMI-8226 leukemia and in the assay with SNB-19 CNS was over 100 µM throughout.

Consider `CC1(C)CC(=O)C(/C=N/c2nc(-c3cccc([N+](=O)[O-])c3)cs2)=C(O)C1`, for which the TGI was found to be 30.5 µM in the assay with A498 renal; 5.69 µM in the assay with CCRF-CEM leukemia; 57.9 µM in the assay on HOP-62 NSCLC; 30.7 µM in the assay with HT29 colon; 60.7 µM in the assay on MDA-MB-435; 36.5 µM in the assay on MDA-N. The TGI was 37.3 µM with NCI-H23 lung, 43.9 µM with RPMI-8226 leukemia and 46.9 µM in the assay with SNB-19 CNS.

In the case of `O=c1ccc2c(Cl)sc(Cl)c2[nH]1`, the TGI in the assay with CCRF-CEM leukemia, in the assay with HOP-62 NSCLC, in the assay with HT29 colon, with MALME-3M melanoma, with MDA-MB-435 and in the assay on MDA-N was over 100 µM throughout. For the same compound, the TGI in the assay with NCI-H23 lung, in the assay with RPMI-8226 leukemia and in the assay with SNB-19 CNS was over 100 µM throughout.

Regarding `CC(C)(C)OC(=O)/C=C/[C@@H](CCC(=O)/C=C/[C@H](/C=C\CCCC(=O)O)NC1(c2ccccc2)c2ccccc2-c2ccccc21)O[Si](C)(C)C(C)(C)C`, the TGI with A498 renal is 34 µM; in the assay with CCRF-CEM leukemia, over 100 µM; with HOP-62 NSCLC it was 36.5 µM; with HT29 colon it was 30.1 µM; in the assay on MDA-MB-435, 48.7 µM; in the assay with MDA-N, 47.2 µM. The TGI is 36.6 µM in the assay on NCI-H23 lung, 85.1 µM in the assay on RPMI-8226 leukemia and 41.8 µM in the assay on SNB-19 CNS.

On to `FC1(F)SC2CCCCCCCCCCC2C1(F)F` (stereo not given), for which the TGI in the assay on CCRF-CEM leukemia was over 100 µM; in the assay on HOP-62 NSCLC it was over 100 µM; with HT29 colon, 96.5 µM; in the assay with MALME-3M melanoma, 59.6 µM; in the assay on MDA-MB-435, over 100 µM; in the assay on MDA-N, over 100 µM. The TGI was 80.1 µM in the assay with NCI-H23 lung, over 100 µM in the assay with RPMI-8226 leukemia and over 100 µM with SNB-19 CNS.
